These results are taken from ChEMBL document CHEMBL5724696, “Autophagy assay results for EUbOPEN Chemogenomics Library” (2024).

The subject of experiment [1] is U2OS. Kind of experiment: (§1) Here: values are normalized to the negative (DMSO; defined as 0% autophagy induction) and positive (250nM Torin1; mTOR inhibitor; defined as maximal inducer of autophagy = 100%) control compounds and represented as % of autophagy induction. […] The impact of autophagy induction on cells is complex and depends on the affected target. As such, the magnitude of a phenotype may not be equally mirrored in the %-value of autophagy induction and vice versa. The dynamics of the induction may indicate the mode of activation: e.g. activation via phosphorylation or a signaling cascade may occur fast, while activation via transcription factors may take considerably longer. […] Of note, treatment concentrations may be sub-optimal for specific compounds, leading to false negative annotations. Format: functional, Homo sapiens. As to conditions: Culturing Media DMEM, 1 % Penicillin/Streptomycin, 10% Fetal bovin serum Add-On: No, Screening Media Control DMEM, Screening Media Samples DMEM.

Experiment [2] has as its system U2OS. The description is as §1. The format is functional, Homo sapiens. As to conditions: Culturing Media DMEM, 1 % Penicillin/Streptomycin, 10% Fetal bovin serum Add-On: No, Screening Media Control DMEM, Screening Media Samples DMEM. The source holds these as a separate data set.
Where [3] appears, read: Compound Concentration 0.5 uM, Timepoint 12 hours.
Setting [4] is: Compound Concentration 0.5 uM, Timepoint 24 hours.
[5] abbreviates: Compound Concentration 0.5 uM, Timepoint 36 hours.
The mark [6] stands for this setting: Compound Concentration 0.5 uM, Timepoint 60 hours.
[7] abbreviates: Compound Concentration 2 uM, Timepoint 12 hours.
[8] abbreviates: Compound Concentration 2 uM, Timepoint 24 hours.
Setting [9] is: Compound Concentration 2 uM, Timepoint 36 hours.
[10] abbreviates: Compound Concentration 2 uM, Timepoint 60 hours.
The mark [11] stands for this setting: Compound Concentration 10 uM, Timepoint 12 hours.
[12] abbreviates: Compound Concentration 10 uM, Timepoint 24 hours.
Setting [13] is: Compound Concentration 10 uM, Timepoint 36 hours.
Setting [14] is: Compound Concentration 10 uM, Timepoint 60 hours.

Molecules are shown by their SMILES.

Consider `N[C@H](C(=O)O)c1ccc(C(=O)O)c(C(=O)O)c1`, for which the autophagy induction in the experiment on U2OS [1] (setting [3]) is given as -6.378%; with U2OS [1] (setting [4]), -5.676%; in the experiment with U2OS [1] (setting [5]), -3.938%; with U2OS [1] (setting [6]) it was 114.48%; with U2OS [1] (setting [7]), 4.454%; in the experiment on U2OS [1] (setting [8]), -1.856%. Also, the autophagy induction in the experiment on U2OS [1] (setting [9]) is reported as -1.714%; in the experiment with U2OS [1] (setting [10]) it was 114.31%; with U2OS [1] (setting [11]), 50.3971%; with U2OS [1] (setting [12]), 15.7905%; in the experiment with U2OS [1] (setting [13]), 7.703%; in the experiment on U2OS [1] (setting [14]), 113.866%. Besides, the autophagy induction was -5.827% in the experiment on U2OS [2] (setting [3]); -6.791% with U2OS [2] (setting [4]); -11.2953% with U2OS [2] (setting [5]); -15.497% in the experiment on U2OS [2] (setting [6]); 2.006% with U2OS [2] (setting [7]); -3.7569% in the experiment with U2OS [2] (setting [8]). The autophagy induction was 0.8793% in the experiment with U2OS [2] (setting [9]); 2.43% with U2OS [2] (setting [10]); -6.462% with U2OS [2] (setting [11]); -8.325% with U2OS [2] (setting [12]); -2.853% with U2OS [2] (setting [13]); -1.815% in the experiment on U2OS [2] (setting [14]).
Turning to `O=C(O)COc1cccc(CN(Cc2ccc(-n3cccn3)cc2)S(=O)(=O)c2cccnc2)c1`, the autophagy induction in the experiment on U2OS [1] (setting [3]) is recorded as 1.733%; in the experiment on U2OS [1] (setting [4]), -2.792%; in the experiment on U2OS [1] (setting [5]) it was -2.001%; in the experiment with U2OS [1] (setting [6]), 114.184%; in the experiment on U2OS [1] (setting [7]), 12.9626%; in the experiment on U2OS [1] (setting [8]) it was 0.7228%. The autophagy induction in the experiment with U2OS [1] (setting [9]) is given as 0.396%; with U2OS [1] (setting [10]), 114.202%; in the experiment with U2OS [1] (setting [11]), 2.661%; in the experiment on U2OS [1] (setting [12]) it was -2.358%; in the experiment on U2OS [1] (setting [13]), 0.08453%; with U2OS [1] (setting [14]), 114.175%. Besides, the autophagy induction in the experiment on U2OS [2] (setting [3]) is reported as 5.874%; in the experiment on U2OS [2] (setting [4]) it was 2.74%; with U2OS [2] (setting [5]) it was 1.495%; in the experiment on U2OS [2] (setting [6]), -1.697%; in the experiment with U2OS [2] (setting [7]), -11.5162%; with U2OS [2] (setting [8]) it was -13.8805%. The autophagy induction in the experiment on U2OS [2] (setting [9]) is listed as -8.014%; with U2OS [2] (setting [10]), -12.1859%; in the experiment on U2OS [2] (setting [11]) it was -5.999%; with U2OS [2] (setting [12]), -5.085%; in the experiment on U2OS [2] (setting [13]), -8.443%; in the experiment on U2OS [2] (setting [14]), 1.395%.
As for `N#Cc1ccc(NC(=O)Nc2ccccc2Br)c2nn[nH]c12`, the autophagy induction in the experiment with U2OS [1] (setting [3]) is given as -0.5776%; in the experiment on U2OS [1] (setting [4]), -3.216%; with U2OS [1] (setting [5]), -2.984%; in the experiment on U2OS [1] (setting [6]), 114.391%; with U2OS [1] (setting [7]) it was 0.1454%; in the experiment on U2OS [1] (setting [8]), -3.5634%. For the same compound, the autophagy induction in the experiment with U2OS [1] (setting [9]) is -1.494%; in the experiment with U2OS [1] (setting [10]), 114.288%; with U2OS [1] (setting [11]) it was -0.261%; in the experiment on U2OS [1] (setting [12]) it was -3.379%; with U2OS [1] (setting [13]) it was -2.529%; with U2OS [1] (setting [14]), 114.424%. Besides, the autophagy induction was 5.86% in the experiment on U2OS [2] (setting [3]); 3.694% with U2OS [2] (setting [4]); 2.244% in the experiment on U2OS [2] (setting [5]); 1.525% in the experiment on U2OS [2] (setting [6]); -10.6319% with U2OS [2] (setting [7]); -11.2857% in the experiment on U2OS [2] (setting [8]). Besides, the autophagy induction in the experiment on U2OS [2] (setting [9]) was -14.4856%; in the experiment with U2OS [2] (setting [10]), -10.0033%; in the experiment with U2OS [2] (setting [11]) it was -0.1618%; in the experiment with U2OS [2] (setting [12]), -2.733%; with U2OS [2] (setting [13]), -3.711%; in the experiment on U2OS [2] (setting [14]) it was -9.797%.
As to `COc1ccc(/C=C/CCCCOc2ccc(C(=O)c3cccc(C(=O)O)c3)cc2CCC(=O)O)cc1`, the autophagy induction with U2OS [1] (setting [3]) is -1.627%; in the experiment with U2OS [1] (setting [4]) it was -2.76%; with U2OS [1] (setting [5]), -1.525%; in the experiment with U2OS [1] (setting [6]), 114.261%; in the experiment with U2OS [1] (setting [7]), 2.991%; with U2OS [1] (setting [8]), -2.166%. Further, the autophagy induction is given as -0.5097% with U2OS [1] (setting [9]); 114.413% with U2OS [1] (setting [10]); 6.765% in the experiment with U2OS [1] (setting [11]); 1.033% with U2OS [1] (setting [12]); 1.832% with U2OS [1] (setting [13]); 114.224% with U2OS [1] (setting [14]). In addition, the autophagy induction was 4.029% with U2OS [2] (setting [3]); -1.055% in the experiment on U2OS [2] (setting [4]); -5.293% with U2OS [2] (setting [5]); -4.291% in the experiment with U2OS [2] (setting [6]); -4.414% with U2OS [2] (setting [7]); -2.822% with U2OS [2] (setting [8]). The autophagy induction in the experiment with U2OS [2] (setting [9]) is recorded as -3.285%; in the experiment with U2OS [2] (setting [10]) it was 2.49%; in the experiment with U2OS [2] (setting [11]), -13.0779%; in the experiment on U2OS [2] (setting [12]), -9.945%; in the experiment on U2OS [2] (setting [13]), -0.5172%; in the experiment on U2OS [2] (setting [14]), -0.9267%.
With `Cc1c(OCc2cccc(-c3ccc(C(=O)O)cc3)c2)cc2c(c1C)C(=O)C(C1CCCC1)C2` (centres undefined), the autophagy induction in the experiment on U2OS [1] (setting [3]) was -1.105%; in the experiment with U2OS [1] (setting [4]) it was -3.325%; in the experiment with U2OS [1] (setting [5]) it was -3.23%; in the experiment with U2OS [1] (setting [6]), 114.413%; with U2OS [1] (setting [7]), 3.182%; with U2OS [1] (setting [8]) it was -1.283%. The autophagy induction with U2OS [1] (setting [9]) is on record as -1.767%; with U2OS [1] (setting [10]), 114.283%; with U2OS [1] (setting [11]) it was 2.021%; with U2OS [1] (setting [12]), -2.128%; in the experiment with U2OS [1] (setting [13]) it was 0.06533%; in the experiment on U2OS [1] (setting [14]) it was 114.104%. The autophagy induction is on record as 16.7916% with U2OS [2] (setting [3]); 7.662% with U2OS [2] (setting [4]); 9.473% in the experiment with U2OS [2] (setting [5]); -0.5665% in the experiment with U2OS [2] (setting [6]); 6.511% with U2OS [2] (setting [7]); 6.165% in the experiment on U2OS [2] (setting [8]). For the same compound, the autophagy induction in the experiment on U2OS [2] (setting [9]) is listed as 2.879%; with U2OS [2] (setting [10]) it was -1.177%; in the experiment on U2OS [2] (setting [11]), 6.9%; with U2OS [2] (setting [12]), 7.1725%; in the experiment on U2OS [2] (setting [13]) it was 8.617%; with U2OS [2] (setting [14]) it was 11.2815%.
With `CCCCCNC(=O)NS(=O)(=O)c1cc([N+](=O)[O-])ccc1NC1CCCCC1`, the autophagy induction with U2OS [1] (setting [3]) is recorded as -2.4637%; in the experiment with U2OS [1] (setting [4]), -2.287%; in the experiment on U2OS [1] (setting [5]), -1.179%; with U2OS [1] (setting [6]), 114.19%; with U2OS [1] (setting [7]), -2.891%; in the experiment with U2OS [1] (setting [8]), -2.398%. Also, the autophagy induction is -2.2883% with U2OS [1] (setting [9]); 114.254% in the experiment on U2OS [1] (setting [10]); -6.232% with U2OS [1] (setting [11]); -4.153% in the experiment on U2OS [1] (setting [12]); -3.872% in the experiment on U2OS [1] (setting [13]); 114.439% in the experiment with U2OS [1] (setting [14]). Also, the autophagy induction with U2OS [2] (setting [3]) is 1.311%; in the experiment on U2OS [2] (setting [4]), 2.21%; in the experiment with U2OS [2] (setting [5]) it was -1.399%; in the experiment on U2OS [2] (setting [6]) it was -21.9841%; in the experiment on U2OS [2] (setting [7]) it was 12.2747%; in the experiment with U2OS [2] (setting [8]), 3.055%. For the same compound, the autophagy induction in the experiment with U2OS [2] (setting [9]) was 0.8075%; with U2OS [2] (setting [10]), -5.198%; in the experiment with U2OS [2] (setting [11]), 0.1217%; in the experiment with U2OS [2] (setting [12]), -4.73%; with U2OS [2] (setting [13]), -6.08%; with U2OS [2] (setting [14]), -12.7619%.
